One compound from patent publication US11116778B2, “Prodrugs of ALOX-15 inhibitors and methods of using the same” (EMPIRICO INC., priority 2019, dated 2021) can be followed below.

The test addresses T1, 15-lipoxygenase (Oryctolagus cuniculus, UniProt P12530).
T1 construct: Animals were then euthanized and nasal mucosa was collected; tissue Covance; host or cells: nasal mucosa of NZW rabbits
T1 sequence (P12530 1-663): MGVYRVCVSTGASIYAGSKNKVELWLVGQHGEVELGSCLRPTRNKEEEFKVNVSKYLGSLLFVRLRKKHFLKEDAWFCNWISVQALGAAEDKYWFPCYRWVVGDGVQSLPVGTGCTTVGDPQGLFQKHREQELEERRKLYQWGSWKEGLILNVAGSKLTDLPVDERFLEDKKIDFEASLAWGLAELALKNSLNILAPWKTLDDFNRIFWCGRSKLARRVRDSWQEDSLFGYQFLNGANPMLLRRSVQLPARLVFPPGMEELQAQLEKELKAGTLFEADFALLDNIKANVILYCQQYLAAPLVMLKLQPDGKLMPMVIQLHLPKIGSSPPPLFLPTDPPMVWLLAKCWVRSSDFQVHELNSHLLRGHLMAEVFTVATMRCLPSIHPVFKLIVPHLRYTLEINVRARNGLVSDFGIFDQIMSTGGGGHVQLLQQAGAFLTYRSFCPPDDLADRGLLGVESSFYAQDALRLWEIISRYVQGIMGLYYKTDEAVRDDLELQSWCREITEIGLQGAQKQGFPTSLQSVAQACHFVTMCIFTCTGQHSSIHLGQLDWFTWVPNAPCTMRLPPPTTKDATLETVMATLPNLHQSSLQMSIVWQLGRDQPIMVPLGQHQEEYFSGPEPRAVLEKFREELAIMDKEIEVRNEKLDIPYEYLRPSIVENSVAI
Nature of the test: 15-HETE levels in rabbit nasal mucosa after nasal administration of compound 5 (IL4/IL13 inflammation model). The following applies: rostral and caudal regions. The test is classed as in vivo. The protocol:
Six (6) female NZW rabbits were employed in this study. Rabbits were obtained from Covance (Denver Pa.). Rabbits were between approximately 10 and 12 months of age at the time of study start. At time point 0, all animals received 50 μL of solution containing rabbit IL4 (RND Systems/Biotechne) and human IL13 (PreproTech) at a concentration of 0.25 mg/mL each in 0.5×PBS containing 12.5 mg/mL BSA per nostril. This was administered intranasally via a venous catheter attached to a micropipette. The animal was positioned in a supine manner and the venous catheter inserted into the nostril. The volume was introduced into the nasal cavity and the same procedure was repeated with the other nostril.
At the 2, 4, and 6 hour time points, animals in Group 1 (n=3) received 0.2 mL of vehicle (0.9% saline) per nostril and the animals in Group 2 (n=3) received 0.2 mL of compound 5 (10 mM) in vehicle per nostril. […]
Nasal lavage and serum samples were analyzed for the levels of compound 3 and compound 5. […] Compound 3 was quantified using LC-MS/MS (QTrap5500, Applied Biosystems). […] Compound 5 was quantified using LC-MS/MS (QTrap5500, Applied Biosystems). […]

Regarding `O=C(Nc1ccc(F)cc1Cl)c1nn(COP(=O)(O)O)c(Cl)c1Cl` [compound 5, (4,5-dichloro-3-((2-chloro-4-fluorophenyl)carbamoyl)-1H-pyrazol-1-yl)methyl dihydrogen phosphate], the “mean 15-HETE levels in nasal mucosa versus vehicle (FIG. 9)” value (rabbits, IL4/IL13 intranasal, compound 5 10 mM 0.2 mL per nostril at 2, 4, 6 hours) was “lower”. Further, the “mean esterified 15-HETE levels in nasal mucosa versus vehicle (FIG. 10)” value (total after NaOH hydrolysis minus free 15-HETE) was “lower”.
